Our source for the IC50 values is patent publication US7763728B2, “Tetrahydropyridothiophenes” (4SC AG, priority 2005, dated 2010).

Assay [1] relates to RKO (RKOp27) human colon adenocarcinoma cells. The assay is described as follows: Alamar Blue cell viability assay, anti-proliferative/cytotoxic activity on proliferating (uninduced) RKOp27 cells. The format is cell-based. The conditions noted are these: 72 hours incubation, absence of the inducer Ponasterone A, read-out: IC50 RKO p27 uninduced (proliferating). The procedure, abridged:
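RKOp27 subclones seeded at 5000 cells/well, compounds added after 24 h in DMEM/10% FCS, quadruplicates, 72 h at 37 °C, 5% CO2. Alamar Blue fluorescence (ex 544/em 590 nm) normalised to untreated cells (1% DMSO medium) as 100%; IC50 from concentration-effect curves.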
For orientation: Alamar Blue is a resazurin reagent that responds to reducing activity.

The subject of assay [2] is RKO colon adenocarcinoma cells (RKOp27) arrested by the expression of ectopic p27Kip1. The assay is described as follows: Alamar Blue cell viability assay on RKOp27 cells arrested by p27Kip1 expression induced by Ponasterone A. Format: cell-based. The conditions noted are these: Homo sapiens, 72 hours incubation, 10 μM Ponasterone A, read-out: IC50 RKO p27 induced (arrested). The procedure, abridged:
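RKOp27 cells, 15000/well, held in DMEM with 10% FCS and with or without 10 μM Ponasterone A to induce p27Kip1 arrest. Compound dilutions added 24 h after seeding, then 72 h at 37 °C in quadruplicate. Alamar Blue fluorescence (544/590 nm) gave % viability relative to untreated cells.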

pIC50: −log10 of the molar value.

In the case of `CCOc1ccccc1CCC(=O)Nc1sc2c(c1C#N)CCN(C(=O)CCn1ccnc1)C2` [Example 102, N-[3-Cyano-6-(3-Imidazol-1-yl-propanoyl)-4,5,6,7-tetrahydro-thieno[2,3-c]pyridin-2-yl]-3-(2-ethoxy-phenyl)-propionamide], the values for the pIC50 in assay [1] and in assay [2] were at least 6.52 and at most 5.00, respectively.
On the same counts, the results for `COc1ccccc1CCC(=O)Nc1sc2c(c1C#N)CCN(C(=O)CCn1ccnc1C)C2` [Example 108, N-{3Cyano-6-[3-(2-methyl-imidazol-1-yl)-propanoyl]-4,5,6,7-tetrahydro-thieno[2,3-c]pyridin-2-yl}-3-(2-methoxy-phenyl)-propionamide] are 5.70 to 6.52 and at most 5.00.
Taken in the same sequence, the figures for `CCOc1ccccc1CCC(=O)Nc1sc2c(c1C#N)CCN(C(=O)CCn1ccnc1C)C2` [Example 109, N-{3-Cyano-6-[3-(2-methyl-imidazol-1-yl)-propanoyl]-4,5,6,7-tetrahydro-thieno[2,3-c]pyridin-2-yl}-3-(2-ethoxy-phenyl)-propionamide] were at least 6.52 and at most 5.00.
In the case of `COc1ccc(C)cc1CCC(=O)Nc1sc2c(c1C#N)CCN(C(=O)CCn1ccnc1C)C2` [Example 110, N-{3-Cyano-6-[3-(2-methyl-imidazol-1-yl)-propanoyl]-4,5,6,7-tetrahydro-thieno[2,3-c]pyridin-2-yl}-3-(2-methoxy-5-methyl-phenyl)-propionamide], the figures for the negative logarithm of the IC50 (pIC50) in assay [1] and in assay [2] were 5.70 to 6.52 and at most 5.00, respectively.
Turning to `COc1cccc(CCC(=O)Nc2sc3c(c2C#N)CCN(C(=O)CCc2nccn2C)C3)c1` [Example 115, N-{3-Cyano-6-[3-(1-methyl-1H-imidazol-2-yl)-propanoyl]-4,5,6,7-tetrahydro-thieno[2,3-c]pyridin-2-yl}-3-(3-methoxy-phenyl)-propionamide], the pIC50 – broadly, the negative decadic logarithm of the IC50, by convention in mol/L – in assay [1] is 5.70 to 6.52; in assay [2], at most 4.40.
Taken in the same sequence, the figures for `COc1ccccc1CCC(=O)Nc1sc2c(c1C#N)CCN(C(=O)CCc1nccn1C)C2` [Example 116, N-{3-Cyano-6-[3-(1-methyl-1H-imidazol-2-yl)-propanoyl]-4,5,6,7-tetrahydro-thieno[2,3-c]pyridin-2-yl}-3-(2-methoxy-phenyl)-propionamide] were at least 6.52 and at most 5.00.
On the same counts, the results for `CCOc1ccccc1CCC(=O)Nc1sc2c(c1C#N)CCN(C(=O)CCc1nccn1C)C2` [Example 117, N-{3-Cyano-6-[3-(1-methyl-1H-imidazol-2-yl)-propanoyl]-4,5,6,7-tetrahydro-thieno[2,3-c]pyridin-2-yl}-3-(2-ethoxy-phenyl)-propionamide] are at least 6.52 and at most 5.00.
`COc1ccc(C)cc1CCC(=O)Nc1sc2c(c1C#N)CCN(C(=O)CCc1nccn1C)C2` [Example 118, N-{3-Cyano-6-[3-(1-methyl-1H-imidazol-2-yl)-propanoyl]-4,5,6,7-tetrahydro-thieno[2,3-c]pyridin-2-yl}-3-(2-methoxy-5-methyl-phenyl)-propionamide]: the pIC50 was 5.70 to 6.52 in assay [1] and at most 5.00 in assay [2].
On the same counts, the results for `COc1ccccc1CCC(=O)Nc1sc2c(c1C#N)CCN(C(=O)CCc1ccncc1)C2` [Example 122, N-[3-Cyano-6-(3-pyridin-4-yl-propanoyl)-4,5,6,7-tetrahydro-thieno[2,3-c]pyridin-2-yl]-3-(2-methoxy-phenyl)-propionamide] are at least 6.52 and below 4.00.
Regarding `CCOc1ccccc1CCC(=O)Nc1sc2c(c1C#N)CCN(C(=O)CCc1ccncc1)C2` [Example 123], the results for the negative-log IC50 (pIC50) in assay [1] and in assay [2] were at least 6.52 and at most 5.00, respectively.
On the same counts, the results for `COc1ccc(C)cc1CCC(=O)Nc1sc2c(c1C#N)CCN(C(=O)CCc1ccncc1)C2` [Example 124, N-[3-Cyano-6-(3-pyridin-4-yl-propanoyl)-4,5,6,7-tetrahydro-thieno[2,3-c]pyridin-2-yl]-3-(2-methoxy-5-methyl-phenyl)-propionamide] are 5.70 to 6.52 and at most 5.00.
On to `COc1cccc(CCC(=O)Nc2sc3c(c2C#N)CCN(C(=O)Cn2ccnc2C)C3)c1` [Example 129, N-{3-Cyano-6-[2-(2-methyl-imidazol-1-yl)-ethanoyl]-4,5,6,7-tetrahydro-thieno[2,3-c]pyridin-2-yl}-3-(3-methoxy-phenyl)-propionamide], for which the negative-log IC50 (pIC50) in assay [1] is 5.70 to 6.52; in assay [2], at most 4.40.
On the same counts, the results for `COc1ccccc1CCC(=O)Nc1sc2c(c1C#N)CCN(C(=O)Cn1ccnc1C)C2` [Example 130, N-{3-Cyano-6-[2-(2-methyl-imidazol-1-yl)-ethanoyl]-4,5,6,7-tetrahydro-thieno[2,3-c]pyridin-2-yl}-3-(2-methoxy-phenyl)-propionamide] are at least 6.52 and at most 4.40.
Taken in the same sequence, the figures for `CCOc1ccccc1CCC(=O)Nc1sc2c(c1C#N)CCN(C(=O)Cn1ccnc1C)C2` [Example 131, N-{3-Cyano-6-[2-(2-methyl-imidazol-1-yl)-ethanoyl]-4,5,6,7-tetrahydro-thieno[2,3-c]pyridin-2-yl}-3-(2-ethoxy-phenyl)-propionamide] were at least 6.52 and at most 4.40.
Taken in the same sequence, the figures for `COc1ccc(C)cc1CCC(=O)Nc1sc2c(c1C#N)CCN(C(=O)Cn1ccnc1C)C2` [Example 132, N-{3-Cyano-6-[2-(2-methyl-imidazol-1-yl)-ethanoyl]-4,5,6,7-tetrahydro-thieno[2,3-c]pyridin-2-yl}-3-(2-methoxy-5-methyl-phenyl)-propionamide] were at least 6.52 and at most 4.40.
In the case of `COc1cccc(CCC(=O)Nc2sc3c(c2C#N)CCN(C(=O)Cn2cnc(C)c2)C3)c1` [Example 138, N-{3-Cyano-6-[2-(4-methyl-imidazol-1-yl)-ethanoyl]-4,5,6,7-tetrahydro-thieno[2,3-c]pyridin-2-yl}-3-(3-methoxy-phenyl)-propionamide], the negative logarithm of the IC50 (pIC50) in assay [1] was 5.70 to 6.52; in assay [2] it was at most 4.40.
In the case of `COc1ccccc1CCC(=O)Nc1sc2c(c1C#N)CCN(C(=O)Cn1cnc(C)c1)C2` [Example 139, N-{3-Cyano-6-[2-(4-methyl-imidazol-1-yl)-ethanoyl]-4,5,6,7-tetrahydro-thieno[2,3-c]pyridin-2-yl}-3-(2-methoxy-phenyl)-propionamide], the pIC50 in assay [1] was at least 6.52; in assay [2], at most 4.40.
As for `CCOc1ccccc1CCC(=O)Nc1sc2c(c1C#N)CCN(C(=O)Cn1cnc(C)c1)C2` [Example 140, N-{3-Cyano-6-[2-(4-methyl-imidazol-1-yl)-ethanoyl]-4,5,6,7-tetrahydro-thieno[2,3-c]pyridin-2-yl}-3-(2-ethoxy-phenyl)-propionamide], the negative-log IC50 (pIC50) in assay [1] is at least 6.52; in assay [2], at most 4.40.
Taken in the same sequence, the figures for `COc1ccc(C)cc1CCC(=O)Nc1sc2c(c1C#N)CCN(C(=O)Cn1cnc(C)c1)C2` [Example 141, N-{3-Cyano-6-[2-(4-methyl-imidazol-1-yl)-ethanoyl]-4,5,6,7-tetrahydro-thieno[2,3-c]pyridin-2-yl}-3-(2-methoxy-5-methyl-phenyl)-propionamide] were 5.70 to 6.52 and at most 4.40.
On the same counts, the results for `COc1ccccc1CCC(=O)Nc1sc2c(c1C#N)CCN(C(=O)Cn1cc(C)nc1C)C2` [Example 147, N-{3-Cyano-6-[2-(2,4-dimethyl-imidazol-1-yl)-ethanoyl]-4,5,6,7-tetrahydro-thieno[2,3-c]pyridin-2-yl}-3-(2-methoxy-phenyl)-propionamide] are at least 6.52 and at most 5.00.
Taken in the same sequence, the figures for `CCOc1ccccc1CCC(=O)Nc1sc2c(c1C#N)CCN(C(=O)Cn1cc(C)nc1C)C2` [Example 148, N-{3-Cyano-6-[2-(2,4-dimethyl-imidazol-1-yl)-ethanoyl]-4,5,6,7-tetrahydro-thieno[2,3-c]pyridin-2-yl}-3-(2-ethoxy-phenyl)-propionamide] were at least 6.52 and at most 5.00.
As to `COc1ccc(C)cc1CCC(=O)Nc1sc2c(c1C#N)CCN(C(=O)Cn1cc(C)nc1C)C2` [Example 149, N-{3-Cyano-6-[2-(2,4-dimethyl-imidazol-1-yl)-ethanoyl]-4,5,6,7-tetrahydro-thieno[2,3-c]pyridin-2-yl}-3-(2-methoxy-5-methyl-phenyl)-propionamide], the pIC50 is 5.70 to 6.52 in assay [1] and at most 5.00 in assay [2].
Taken in the same sequence, the figures for `COc1cccc(CCC(=O)Nc2sc3c(c2C#N)CCN(C(=O)CCn2cnc(C)c2)C3)c1` [Example 154, N-{3-Cyano-6-[3-(4-methyl-imidazol-1-yl)-propanoyl]-4,5,6,7-tetrahydro-thieno[2,3-c]pyridin-2-yl}-3-(3-methoxy-phenyl)-propionamide] were 5.70 to 6.52 and at most 5.00.
Take `COc1ccccc1CCC(=O)Nc1sc2c(c1C#N)CCN(C(=O)CCn1cnc(C)c1)C2` [Example 155, N-{3-Cyano-6-[3-(4-methyl-imidazol-1-yl)-propanoyl]-4,5,6,7-tetrahydro-thieno[2,3-c]pyridin-2-yl}-3-(2-methoxy-phenyl)-propionamide]: the negative-log IC50 (pIC50) in assay [1] was 5.70 to 6.52; in assay [2], at most 5.00.
Take `CCOc1ccccc1CCC(=O)Nc1sc2c(c1C#N)CCN(C(=O)CCn1cnc(C)c1)C2` [Example 156, N-{3-Cyano-6-[3-(4-methyl-imidazol-1-yl)-propanoyl]-4,5,6,7-tetrahydro-thieno[2,3-c]pyridin-2-yl}-3-(2-ethoxy-phenyl)-propionamide]: the figures for the negative-log IC50 (pIC50) in assay [1] and in assay [2] were at least 6.52 and at most 5.00, respectively.
